This note sets out measurements from ChEMBL document CHEMBL4814032, “Discovery of an indole-substituted furanone with tubulin polymerization inhibition activity” (Bioorg Med Chem Lett, 2021).

SMILES strings stand for the structures. pIC50: −log10 of the molar value. Activity calls are given as the source filed them. The calls are words filed in the database; no cut-off is given here.

One experiment deals with U-937. As to the kind of experiment: Cytotoxicity against human U-937 cells by MTT assay. The class given is functional, cell-based.
Experiment [1] deals with T1, Protein kinase C epsilon type (Homo sapiens) (UniProt Q02156).
T1 sequence (whole entry): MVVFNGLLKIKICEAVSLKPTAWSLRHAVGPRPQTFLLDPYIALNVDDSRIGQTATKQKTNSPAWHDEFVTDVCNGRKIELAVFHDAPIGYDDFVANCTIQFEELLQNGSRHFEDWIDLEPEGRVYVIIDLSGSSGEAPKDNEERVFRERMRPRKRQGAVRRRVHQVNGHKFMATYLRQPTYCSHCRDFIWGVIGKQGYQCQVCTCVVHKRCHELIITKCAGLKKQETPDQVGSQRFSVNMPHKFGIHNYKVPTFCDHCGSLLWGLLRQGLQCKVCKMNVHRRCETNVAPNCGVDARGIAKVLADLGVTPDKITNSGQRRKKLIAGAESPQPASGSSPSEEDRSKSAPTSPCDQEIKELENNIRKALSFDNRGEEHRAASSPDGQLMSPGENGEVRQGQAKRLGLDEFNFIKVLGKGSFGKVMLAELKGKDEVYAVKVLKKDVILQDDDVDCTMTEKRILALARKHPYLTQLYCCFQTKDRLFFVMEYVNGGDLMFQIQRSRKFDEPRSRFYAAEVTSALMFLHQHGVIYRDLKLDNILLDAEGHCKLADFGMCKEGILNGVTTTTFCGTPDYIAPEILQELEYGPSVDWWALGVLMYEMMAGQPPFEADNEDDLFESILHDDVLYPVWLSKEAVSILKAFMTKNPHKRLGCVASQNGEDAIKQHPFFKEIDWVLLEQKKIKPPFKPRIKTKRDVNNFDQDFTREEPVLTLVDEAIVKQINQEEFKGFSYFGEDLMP
Put plainly: Binding affinity to PKCepsilon (unknown origin).

The target in experiment [2] is Vascular endothelial growth factor receptor 3 (Homo sapiens) (UniProt P35916). As to the kind of experiment: Binding affinity to VEGFR3 (unknown origin).
In a further experiment the target is Tubulin (Homo sapiens) (UniProt P68371+Q9H4B7+P0DPH7+P68366+Q13509+Q71U36+P04350+Q3ZCM7+P07437+P68363+Q9BQE3+Q6PEY2+Q13885+Q9BVA1+Q9BUF5). As to the kind of experiment: Inhibition of tubulin polymerization (unknown origin) at 10 uM. The class given is protein-complex assay.

Sequence of Vascular endothelial growth factor receptor 3 (Homo sapiens) (P35916 whole entry): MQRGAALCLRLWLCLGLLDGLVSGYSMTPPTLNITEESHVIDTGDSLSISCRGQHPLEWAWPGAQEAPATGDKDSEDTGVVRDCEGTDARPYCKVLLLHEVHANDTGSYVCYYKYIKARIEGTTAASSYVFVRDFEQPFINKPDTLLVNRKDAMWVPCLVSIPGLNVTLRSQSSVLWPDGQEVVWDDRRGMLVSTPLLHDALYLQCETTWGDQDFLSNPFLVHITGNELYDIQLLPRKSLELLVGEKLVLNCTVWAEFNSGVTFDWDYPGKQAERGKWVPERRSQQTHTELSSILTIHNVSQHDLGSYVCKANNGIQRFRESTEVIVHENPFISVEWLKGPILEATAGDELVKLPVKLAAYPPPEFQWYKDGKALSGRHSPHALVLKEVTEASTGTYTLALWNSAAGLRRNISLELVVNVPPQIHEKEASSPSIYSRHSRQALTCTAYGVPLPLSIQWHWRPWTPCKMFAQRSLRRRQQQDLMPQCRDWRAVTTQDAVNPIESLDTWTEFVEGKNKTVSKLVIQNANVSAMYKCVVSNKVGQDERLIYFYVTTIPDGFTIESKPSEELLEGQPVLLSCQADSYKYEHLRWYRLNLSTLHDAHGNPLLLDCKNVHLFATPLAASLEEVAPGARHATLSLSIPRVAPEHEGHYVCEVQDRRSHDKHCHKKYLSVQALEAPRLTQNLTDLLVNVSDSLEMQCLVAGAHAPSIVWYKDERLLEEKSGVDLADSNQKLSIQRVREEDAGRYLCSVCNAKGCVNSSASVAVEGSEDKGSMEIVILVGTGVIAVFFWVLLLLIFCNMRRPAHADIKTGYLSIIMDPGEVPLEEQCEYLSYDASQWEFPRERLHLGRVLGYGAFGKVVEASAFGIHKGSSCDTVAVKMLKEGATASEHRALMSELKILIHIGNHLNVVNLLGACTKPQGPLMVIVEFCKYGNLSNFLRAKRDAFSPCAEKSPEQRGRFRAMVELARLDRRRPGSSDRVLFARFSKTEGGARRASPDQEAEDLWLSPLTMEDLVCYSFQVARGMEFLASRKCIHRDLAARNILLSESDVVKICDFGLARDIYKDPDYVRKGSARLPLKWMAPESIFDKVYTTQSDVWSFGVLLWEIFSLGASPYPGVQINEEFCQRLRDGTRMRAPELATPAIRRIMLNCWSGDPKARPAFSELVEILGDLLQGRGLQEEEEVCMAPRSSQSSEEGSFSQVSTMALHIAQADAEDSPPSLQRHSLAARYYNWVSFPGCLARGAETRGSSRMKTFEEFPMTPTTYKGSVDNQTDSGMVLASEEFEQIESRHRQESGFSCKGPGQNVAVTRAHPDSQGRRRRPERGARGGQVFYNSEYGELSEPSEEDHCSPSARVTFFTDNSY

Compound `COc1ccc(C2=C(c3cn(C)c4ccccc34)C(=O)OC2)cc1OC` showed a pIC50 with U-937 of 6.00.

Take `COc1ccc(C2=C(c3cn(C)c4ccccc34)C(=O)NC2)cc1OC`: the Activity in experiment [1] was 47%; in experiment [2], 50%.

For the compound `CCCN1CC(c2ccc(OC)c(OC)c2)=C(c2cn(C(=O)OCC)c3ccccc23)C1=O`, the pIC50 with U-937 was 5.30.

For `CCCN1CC(c2ccc(OC)c(OC)c2)=C(c2cn(C)c3ccccc23)C1=O`, the negative logarithm of the IC50 (pIC50) with U-937 is 5.30.

For the compound `CCCN1CC(c2ccc(OC)c(OC)c2)=C(c2c[nH]c3ccccc23)C1=O`, the pIC50 in the experiment on U-937 was 4.46.

Compound `COc1ccc(C2=C(c3c[nH]c4ccccc34)C(=O)OC2)cc1OC` had a negative logarithm of the IC50 (pIC50) in the experiment on U-937 of 5.05.

For `CCOC(=O)n1cc(C2=C(c3ccc(OC)c(OC)c3)COC2=O)c2ccccc21`, the pIC50 with U-937 was 6.52. At Tubulin (Homo sapiens), the inhibition result was “Active”.
